Test results as given in ChEMBL document CHEMBL3886759, “Indole-1-carboxamides as kinase inhibitors” (2016).

Columns and labels:
[1] = target: Vascular endothelial growth factor receptor 2 (Homo sapiens, UniProt P35968); experiment: (§1) Kinase Assay: Biochemical KDR kinase assays were performed in 96 well microtiter plates that were coated overnight with 75 μg/well of poly-Glu-Tyr (4:1) in 10 mM Phosphate Buffered Saline (PBS), pH 7.4. The coated plates were washed with 2 mls per well PBS+0.05% Tween-20 (PBS-T), blocked by incubation with PBS containing 1% BSA, then washed with 2 mls per well PBS-T prior to starting the reaction. Reactions were carried out in 100 μL reaction volumes containing 2.7 μM ATP in kinase buffer (50 mM Hepes buffer pH 7.4, 20 mM MgCl2, 0.1 mM MnCl2 and 0.2 mM Na3VO4). Test compounds were reconstituted in 100% DMSO and added to the reaction to give a final DMSO concentration of 5%. Reactions were initiated by the addition 20 ul per well of kinase buffer containing 200-300 ng purified cytoplasmic domain KDR protein (BPS Bioscience, San Diego, Calif.).
Sequence of Vascular endothelial growth factor receptor 2 (P35968 whole entry, the tested form may be a part): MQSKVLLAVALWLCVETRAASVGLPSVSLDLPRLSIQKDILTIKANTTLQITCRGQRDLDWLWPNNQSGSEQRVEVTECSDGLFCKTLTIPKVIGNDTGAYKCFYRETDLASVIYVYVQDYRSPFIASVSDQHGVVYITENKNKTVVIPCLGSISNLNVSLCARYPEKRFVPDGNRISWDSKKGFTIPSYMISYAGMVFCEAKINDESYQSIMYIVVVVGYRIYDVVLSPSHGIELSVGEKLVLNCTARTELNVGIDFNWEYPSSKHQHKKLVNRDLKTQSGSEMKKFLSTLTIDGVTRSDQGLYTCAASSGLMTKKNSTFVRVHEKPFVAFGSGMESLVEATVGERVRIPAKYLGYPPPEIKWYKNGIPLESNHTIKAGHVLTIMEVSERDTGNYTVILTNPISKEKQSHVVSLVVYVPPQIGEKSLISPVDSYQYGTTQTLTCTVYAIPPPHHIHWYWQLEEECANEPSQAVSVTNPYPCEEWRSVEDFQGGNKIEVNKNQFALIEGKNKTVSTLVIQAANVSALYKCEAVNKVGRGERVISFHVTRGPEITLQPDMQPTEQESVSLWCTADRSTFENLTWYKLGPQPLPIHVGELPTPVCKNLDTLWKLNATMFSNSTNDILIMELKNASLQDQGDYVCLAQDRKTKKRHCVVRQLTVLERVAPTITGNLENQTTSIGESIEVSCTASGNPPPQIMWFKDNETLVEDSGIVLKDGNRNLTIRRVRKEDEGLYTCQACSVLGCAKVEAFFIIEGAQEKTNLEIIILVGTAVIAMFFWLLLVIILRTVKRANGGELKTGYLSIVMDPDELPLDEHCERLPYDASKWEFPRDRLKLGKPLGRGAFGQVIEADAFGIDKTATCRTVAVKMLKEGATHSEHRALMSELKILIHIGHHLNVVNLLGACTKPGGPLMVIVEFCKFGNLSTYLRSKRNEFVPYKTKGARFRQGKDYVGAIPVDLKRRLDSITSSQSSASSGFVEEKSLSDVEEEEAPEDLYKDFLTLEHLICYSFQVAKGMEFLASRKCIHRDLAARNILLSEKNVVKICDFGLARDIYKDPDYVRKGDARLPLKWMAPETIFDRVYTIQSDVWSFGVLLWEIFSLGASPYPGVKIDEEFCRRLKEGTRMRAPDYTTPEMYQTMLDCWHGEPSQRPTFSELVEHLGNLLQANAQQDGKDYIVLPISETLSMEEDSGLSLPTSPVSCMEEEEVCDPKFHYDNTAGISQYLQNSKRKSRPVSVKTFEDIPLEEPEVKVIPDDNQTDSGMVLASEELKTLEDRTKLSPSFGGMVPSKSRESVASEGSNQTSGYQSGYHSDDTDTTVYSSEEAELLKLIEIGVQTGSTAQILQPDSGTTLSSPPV

[2] = target: Platelet-derived growth factor receptor beta (Homo sapiens, UniProt P09619); experiment: as §1, with “Biochemical PDGFRβ” for “Biochemical KDR”, “75 μg” for “75 μg/well”, “containing 36” for “containing 2.7”, “domain PDGFR-b” for “domain KDR”, “protein (Millipore). Following a 60 minute incubation at 30° C., the reactions were washed 2 mls per well PBS-T.” for “protein (BPS Bioscience, San Diego, Calif.).”
Sequence of Platelet-derived growth factor receptor beta (P09619 whole entry): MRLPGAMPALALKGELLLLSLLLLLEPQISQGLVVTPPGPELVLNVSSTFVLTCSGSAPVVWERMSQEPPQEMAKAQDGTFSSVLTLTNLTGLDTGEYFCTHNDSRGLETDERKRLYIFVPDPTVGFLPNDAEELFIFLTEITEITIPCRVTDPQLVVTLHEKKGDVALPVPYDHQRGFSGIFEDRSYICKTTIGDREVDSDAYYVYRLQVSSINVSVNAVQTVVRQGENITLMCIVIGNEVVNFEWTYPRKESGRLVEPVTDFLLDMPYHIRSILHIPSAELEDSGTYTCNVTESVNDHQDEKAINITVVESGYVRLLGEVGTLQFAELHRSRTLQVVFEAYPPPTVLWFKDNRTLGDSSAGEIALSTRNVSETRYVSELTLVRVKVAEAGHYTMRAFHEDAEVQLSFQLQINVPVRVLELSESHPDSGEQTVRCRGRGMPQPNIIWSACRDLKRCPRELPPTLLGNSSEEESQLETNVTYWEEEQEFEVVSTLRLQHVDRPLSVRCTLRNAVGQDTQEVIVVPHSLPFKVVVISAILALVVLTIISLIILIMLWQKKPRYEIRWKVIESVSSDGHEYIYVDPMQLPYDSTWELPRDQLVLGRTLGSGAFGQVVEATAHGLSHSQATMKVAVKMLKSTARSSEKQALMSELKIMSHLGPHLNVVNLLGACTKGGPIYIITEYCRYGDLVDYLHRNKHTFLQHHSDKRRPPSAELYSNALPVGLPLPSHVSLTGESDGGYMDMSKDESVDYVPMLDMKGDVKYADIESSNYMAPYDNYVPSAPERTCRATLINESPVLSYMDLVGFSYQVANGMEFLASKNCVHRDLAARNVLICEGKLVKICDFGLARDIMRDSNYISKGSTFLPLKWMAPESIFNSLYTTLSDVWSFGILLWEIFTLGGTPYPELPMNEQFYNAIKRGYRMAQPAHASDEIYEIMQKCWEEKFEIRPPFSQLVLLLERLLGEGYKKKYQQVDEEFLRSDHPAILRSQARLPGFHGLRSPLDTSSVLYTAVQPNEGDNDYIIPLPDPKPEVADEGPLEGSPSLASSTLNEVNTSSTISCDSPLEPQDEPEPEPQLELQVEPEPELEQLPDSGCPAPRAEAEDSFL

SMILES: CCc1cccc(NC(=O)Nc2ccc(-c3cc4ccccc4n3C(N)=O)cc2)c1
- IC50 [1]: 3 nM
- IC50 [2]: 10 nM
